SMILES strings stand for the structures. Calls of active or inactive are those of the source.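 How the source made its calls: active means fitted curve reaches -35% activity change at a concentration below twice the top valid dose tested; inactive means the rest, including effects opposite to the expected direction.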

The experiment can be described thus: EWS/Fli1-dependent A673 cell killing, confirmation, CellTiter-Glo luminescence, cherry-pick retest (AID 720587). The conditions noted are these: A673 Ewing sarcoma viability, CellTiter-Glo ATP luminescence, 72 h; at 26 µM (top of the series). Background: Cellular ATP, detected with luciferase, serves as a proxy for viable cell number.

`CC(C)(C)c1ccc(/C=N/Nc2ccc(C(=O)O)cc2)cc1`: the activity change, negative = cytotoxicity was -3.68% (inactive).

With `CCN(CC)C(=O)CN1C(=O)C(=O)c2ccccc21`, the activity change, negative = cytotoxicity is -0.157% (inactive).

Regarding `O=C1C(=O)N(CCS(=O)(=O)c2ccccc2)c2ccc(Cl)cc21`, the activity change, negative = cytotoxicity is -5.89% (inactive).

As for `CN(C)Cc1c(O)ccc2c1O/C(=C\C=C\c1ccccc1)C2=O`, the activity change, negative = cytotoxicity was -7.01% (inactive).

In the case of `CC(C)c1ccccc1NC(=O)COC(=O)CCN1C(=O)/C(=C\C=C\c2ccccc2)SC1=S`, the activity change, negative = cytotoxicity is -0.202% (inactive).

For `Nc1ccc(Oc2cccc(Oc3ccc(N)cc3)c2)cc1`, the activity change, negative = cytotoxicity is -3.72% (inactive).

As for `COc1ccc(/C=C2\SC(=S)N(CCCC(=O)NC3CCCC3)C2=O)cc1OC`, the activity change, negative = cytotoxicity was -18.4% (inactive).

Turning to `COCc1cc(C)nc2sc(C(=O)NCCO)c(-n3cccc3)c12`, the activity change, negative = cytotoxicity was 13.2% (inactive).

On to `Cc1ccc(N=C2NC(=O)/C(=C\c3cccs3)S2)cc1C`, for which the activity change, negative = cytotoxicity is 1.74% (inactive).

For the compound `Cc1cc(C(=O)CN2C(=O)c3ccccc3S2(=O)=O)c(C)n1C(C)C`, the activity change, negative = cytotoxicity was 21.4% (inactive).

With `Cc1ccc(/C=C/C(=O)N2CCN(S(=O)(=O)c3c(C)c(C)cc(C)c3C)CC2)o1`, the activity change, negative = cytotoxicity is 4.87% (inactive).

As to `O=C(CNC(c1ccccc1)c1ccccc1)Nc1ccccc1-c1ccccc1`, the activity change, negative = cytotoxicity was -1.93% (inactive).

Consider `CC(=O)N1CCCC(c2cc(C(=O)Nc3ccccc3)no2)C1` (centres undefined), for which the activity change, negative = cytotoxicity was 9.56% (inactive).

In the case of `COc1ccc2cc(C(N)=O)/c(=N\NC(=O)c3ccccc3)oc2c1`, the activity change, negative = cytotoxicity was -2% (inactive).

In the case of `O=C(O)CN1C(=O)/C(=C\c2ccccc2OCc2ccc(Cl)cc2Cl)SC1=S`, the activity change, negative = cytotoxicity was -0.632% (inactive).

As to `CCOC(=O)C1CCCCN1C(=O)CCc1c(C)nc2cc(-c3ccccc3)nn2c1C` (centres undefined), the activity change, negative = cytotoxicity was -3.12% (inactive).

On to `Cc1cc(C)cc(OCC(=O)OCC(=O)Nc2cc(S(=O)(=O)N3CCOCC3)ccc2C)c1`, for which the activity change, negative = cytotoxicity is -2.43% (inactive).

On to `CCOc1ccc(-c2noc(CCC(=O)O)n2)cc1`, for which the activity change, negative = cytotoxicity was 6.68% (inactive).

As for `O=C1CCC2S/C(=C/Nc3ccc(C(F)(F)F)cc3)C(=O)N12` (centres undefined), the activity change, negative = cytotoxicity was -2.74% (inactive).

On to `O=C(CCCCl)Nc1nc(-c2ccc3c(c2)OCCO3)cs1`, for which the activity change, negative = cytotoxicity is 10.2% (inactive).

Turning to `CCCn1c(C)cc(C(=O)CN2C(=O)c3ccccc3S2(=O)=O)c1C`, the activity change, negative = cytotoxicity is 11.3% (inactive).

Take `O=C(NC(=O)c1ccccc1)Nc1ccccc1`: the activity change, negative = cytotoxicity was -3.17% (inactive).

With `O=C(CCCN1C(=O)/C(=C/c2ccccc2Cl)SC1=S)NNC(=O)c1ccc(Cl)cc1Cl`, the activity change, negative = cytotoxicity is -0.616% (inactive).

In the case of `CN(C)C(=O)c1ccc(-c2ccccc2[C@@H]2[C@@H](CO)N(C(=O)C3CC3)[C@H]2C#N)cc1`, the activity change, negative = cytotoxicity is 0.679% (inactive).

Take `O=C(C[C@@H]1C[C@H]2c3cc(NC(=O)CC4CC4)ccc3O[C@H]2[C@H](CO)O1)NCc1ccccc1F`: the activity change, negative = cytotoxicity was -23.9% (inactive).

On to `CCOc1ccc(/C=C2\CCc3ccccc3C2=O)cc1`, for which the activity change, negative = cytotoxicity is -1.55% (inactive).

As to `COc1ccc(C(=O)Nc2cccc(C(=O)N/N=C/c3ccc(OC)cc3OC)c2)cc1`, the activity change, negative = cytotoxicity is -1.59% (inactive).

As to `COc1cc(OC)cc(-c2cc3nc(C)c(CCC(=O)O)c(C)n3n2)c1`, the activity change, negative = cytotoxicity was 0.866% (inactive).

As to `COc1ccc(/C=C2\SC(=O)N(CCCC(=O)Nc3ccc(C(=O)O)cc3)C2=O)cc1`, the activity change, negative = cytotoxicity was -0.477% (inactive).

For the compound `COc1ccc2oc(C(=O)NCCc3ccccc3)c(C)c2c1`, the activity change, negative = cytotoxicity was -2.64% (inactive).

Take `O=C(NCc1ccccn1)c1ccc(CNS(=O)(=O)c2cccc(Cl)c2)cc1`: the activity change, negative = cytotoxicity was 0.155% (inactive).

Regarding `Cc1ccccc1N=CC1=C(O)c2ccccc2C1=O`, the activity change, negative = cytotoxicity was -6.09% (inactive).

In the case of `C[C@@H]1CN([C@@H](C)CO)S(=O)(=O)c2ccc(C#CCN(C)C)cc2O[C@@H]1CN(C)Cc1ccncc1`, the activity change, negative = cytotoxicity was -10.8% (inactive).

With `Nc1ncn([C@@H]2O[C@H](CO)[C@@H](O)[C@H]2O)c(=O)n1`, the activity change, negative = cytotoxicity is -13.8% (inactive).

Regarding `Cc1cc2sc3ccc(C#CC4(O)CCCCC4)cc3c(=O)c2cc1C`, the activity change, negative = cytotoxicity is -2.73% (inactive).

Consider `CC1=NC(=O)C(N=Nc2cccc(C(=O)O)c2)N1c1ccccc1` (centres undefined), for which the activity change, negative = cytotoxicity was -2.93% (inactive).

As to `CC1(CCc2ccccc2)NC(=O)N(CC(=O)N2CC(=O)Nc3ccccc32)C1=O` (centres undefined), the activity change, negative = cytotoxicity is 7.32% (inactive).

Take `C/C=C/c1ccc([C@H]2[C@@H](CO)N3C(=O)CN(S(=O)(=O)c4cccc(F)c4)C[C@@H]23)cc1`: the activity change, negative = cytotoxicity is -5.5% (inactive).

Turning to `Nc1ccc(-c2cc3ccccc3oc2=O)cc1`, the activity change, negative = cytotoxicity was 3.89% (inactive).

As to `O=C1NC(=O)N(CCc2ccc(F)cc2)C(=O)/C1=C/C=C/c1ccccc1`, the activity change, negative = cytotoxicity is 0.109% (inactive).

As to `N/C(Cc1nc(-c2ccc(F)cc2)cs1)=N\O`, the activity change, negative = cytotoxicity is -2.03% (inactive).

Take `O=C1C(=O)N(CCS(=O)(=O)c2ccccc2)c2ccccc21`: the activity change, negative = cytotoxicity is 12.4% (inactive).

As to `COc1ccc(/C=C2\SC(=O)N(CCCC(=O)Nc3cc(Cl)ccc3C(=O)O)C2=O)cc1`, the activity change, negative = cytotoxicity is 1.72% (inactive).

Regarding `CN(C(=O)COC(=O)c1cc(-c2ccccc2Cl)nc2ccccc12)C1CCS(=O)(=O)C1` (centres undefined), the activity change, negative = cytotoxicity is -1.76% (inactive).

Regarding `COc1ccccc1/C=C1\SC(=S)N(CCC(=O)Nc2cc(C)on2)C1=O`, the activity change, negative = cytotoxicity was 6.59% (inactive).

Turning to `COc1cc(/C=N/NC(=O)c2csc3c2CCCC3)cc(OC)c1O`, the activity change, negative = cytotoxicity is 0.143% (inactive).

As to `CCNC(=O)[C@@H]1[C@@H](CO)[C@@H]2Cn3c(ccc(C4=CCCCC4)c3=O)[C@H]1N2CC`, the activity change, negative = cytotoxicity was -1.43% (inactive).

As to `COc1ccc(/C=N/Nc2ccc(C(=O)O)cc2)cc1Br`, the activity change, negative = cytotoxicity was -2.31% (inactive).

As for `Cc1cc(Br)ccc1N=C1C(=O)Nc2ccccc21`, the activity change, negative = cytotoxicity is -19% (inactive).

On to `COC(=O)c1c(C)[nH]c(/C=N/Nc2ccccc2)c1C`, for which the activity change, negative = cytotoxicity was 5.78% (inactive).

In the case of `COc1ccc(C=NNc2nc3ccccc3s2)cc1`, the activity change, negative = cytotoxicity is 3.07% (inactive).

Turning to `C[C@@H]1CN([C@@H](C)CO)C(=O)c2cccc(NC(=O)Nc3ccccc3)c2O[C@@H]1CN(C)Cc1ccc(-c2ccccc2)cc1`, the activity change, negative = cytotoxicity was -1.33% (inactive).

On to `O=C(O)c1ccc(N/N=C/c2cc(Br)cs2)cc1`, for which the activity change, negative = cytotoxicity was -5.62% (inactive).

Regarding `COc1cccc(S(=O)(=O)N(C)C[C@H]2OCc3cnnn3CCCC(=O)N([C@@H](C)CO)C[C@H]2C)c1`, the activity change, negative = cytotoxicity is 0.226% (inactive).

For the origin of these results see PubChem BioAssay AID720587 (Broad Institute, 2013).
